22 compounds from PubChem BioAssay AID330 (DTP/NCI, 2004) can be followed below.

This assay deals with P388 leukemia ip, CD2F1 mice, survival T/C. Kind of assay: NCI In Vivo Anticancer Drug Screen. Data for tumor model P388 Leukemia (intraperitoneal) in CD2F1 (CDF1) mice. The note with it: endpoint: median survival time, higher = longer survival. The gist of the method: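 Mice carrying the transplanted tumor received test compound or vehicle. Survival was recorded in each group, and the value is the treated-group measurement divided by that of the vehicle-treated control group.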

[1] abbreviates: dose: 50.0 mg/kg/injection, schedule: Q01DX005 (ip), vehicle: saline with Tween-80.
The mark [2] stands for this setting: dose: 100.0 mg/kg/injection, schedule: Q01DX005 (ip), vehicle: saline with Tween-80.
Where [3] appears, read: dose: 200.0 mg/kg/injection, schedule: Q01DX005 (ip), vehicle: saline with Tween-80.
Setting [4] is: dose: 50.0 mg/kg/injection, schedule: Q01DX009 (ip), vehicle: suspension in saline.
Setting [5] is: dose: 200.0 mg/kg/injection, schedule: Q01DX009 (ip), vehicle: suspension in saline.
Setting [6] is: dose: 60.0 mg/kg/injection, schedule: Q01DX005 (ip), vehicle: Klucel (hydroxypropylcellulose) (HPC).
[7] abbreviates: dose: 25.0 mg/kg/injection, schedule: Q01DX009 (ip), vehicle: saline.
The mark [8] stands for this setting: dose: 50.0 mg/kg/injection, schedule: Q01DX009 (ip), vehicle: saline.
The mark [9] stands for this setting: dose: 100.0 mg/kg/injection, schedule: Q01DX009 (ip), vehicle: saline.
[10] abbreviates: dose: 200.0 mg/kg/injection, schedule: Q01DX009 (ip), vehicle: saline.
Setting [11] is: dose: 50.0 mg/kg/injection, schedule: Q01DX009 (ip), vehicle: Klucel (hydroxypropylcellulose) (HPC).

“And” between values parts separate entries of the source, which are not always exact repeats. Equal entries are not always repeated. Inconclusive results and toxic doses are left out.

For the compound `O=S(=O)([O-])NC1CCCCC1.O=S(=O)([O-])NC1CCCCC1.[Hg+2].[Hg+2].[Hg+2].[O-2].[O-2]`, the T/C (dose: 0.5 mg/kg/injection, schedule: Q04DX003 (ip), vehicle: saline) is 96 % of control; the T/C (dose: 1.0 mg/kg/injection, schedule: Q04DX003 (ip), vehicle: saline) was 100 % of control; the T/C (dose: 2.0 mg/kg/injection, schedule: Q04DX003 (ip), vehicle: saline) was 100 % of control.
Regarding `c1ccc(CCN2CCC3(CC2)COCc2ccccc23)cc1`, the T/C (dose: 100.0 mg/kg/injection, schedule: Q01DX001 (ip), vehicle: saline with Tween-80) was 96 % of control.
Regarding `C[Si](C)(Cn1ccc(=O)n(C[Si](C)(C)c2ccccc2)c1=O)c1ccccc1`, the T/C is 100 % of control (dose: 81.0 mg/kg/injection, schedule: Q04DX002 (ip), vehicle: saline with Tween-80); 104 % of control (dose: 162.0 mg/kg/injection, schedule: Q04DX002 (ip), vehicle: saline with Tween-80); 106 % of control (dose: 324.0 mg/kg/injection, schedule: Q04DX002 (ip), vehicle: saline with Tween-80).
Take `COC(=O)c1c(C(=O)Cc2cc3c(cc2CCN(C)C)OCO3)ccc(OC)c1OC`: the T/C is, setting by setting: (dose: 12.5 mg/kg/injection, schedule: Q01DX001 (ip), vehicle: saline + alcohol) 99 % of control; (dose: 25.0 mg/kg/injection, schedule: Q01DX001 (ip), vehicle: saline + alcohol) 100 % of control; (dose: 50.0 mg/kg/injection, schedule: Q01DX001 (ip), vehicle: saline + alcohol) 101 % of control.
Turning to `COCNC(=S)c1ccc(C(N)=O)nc1C(=O)NC(C)(C)C`, the T/C was 98 % of control under setting [1], 100 % of control under setting [2] and 99 % of control under setting [3].
Turning to `COc1ccc(CSC(=S)Nc2ccc(Br)c(C)c2)cc1`, the T/C under setting [4] was 96 % of control; the T/C (dose: 100.0 mg/kg/injection, schedule: Q01DX009 (ip), vehicle: suspension in saline) was 101 % of control; the T/C under setting [5] was 109 % of control.
In the case of `CC(NC(=O)C(N)CCC(=O)O)C(=O)O` (configuration not stated), the T/C runs as follows: (dose: 50.0 mg/kg/injection, schedule: Q01DX005 (ip), vehicle: saline) 103 % of control; (dose: 100.0 mg/kg/injection, schedule: Q01DX005 (ip), vehicle: saline) 100 % of control; (dose: 200.0 mg/kg/injection, schedule: Q01DX005 (ip), vehicle: saline) 107 % of control.
As to `O=S(=O)(O)c1ccccc1N=Nc1ccc(N(CCCl)CCCl)cc1`, the T/C (dose: 100.0 mg/kg/injection, schedule: Q01DX009 (ip), vehicle: saline with Tween-80) was 156 % of control.
For `COc1ccc(Br)cc1C1SCC(=O)N1c1nncs1` (configuration not stated), the T/C is, setting by setting: under setting [6], 101 % of control; (dose: 120.0 mg/kg/injection, schedule: Q01DX005 (ip), vehicle: Klucel (hydroxypropylcellulose) (HPC)) 101 % of control; (dose: 240.0 mg/kg/injection, schedule: Q01DX005 (ip), vehicle: Klucel (hydroxypropylcellulose) (HPC)) 93 % of control.
On to `[O-][n+]1cc(Cl)cc(Cl)c1`, for which the T/C is 100 % of control and 106 % of control under setting [7]; 108 % of control and 96 % of control under setting [8]; 100 % of control and 96 % of control under setting [9]; 99 % of control and 102 % of control under setting [10]; 99 % of control and 96 % of control (dose: 400.0 mg/kg/injection, schedule: Q01DX009 (ip), vehicle: saline).
With `FC(F)(F)c1cccc(NC(=S)SCc2ccc(Cl)c(Cl)c2)c1`, the T/C is 95 % of control (dose: 12.5 mg/kg/injection, schedule: Q01DX009 (ip), vehicle: saline); 89 % of control under setting [7]; 90 % of control under setting [8]; 89 % of control under setting [4]; 90 % of control under setting [9]; 100 % of control under setting [10]. For the same compound, under setting [5], the T/C was 97 % of control.
`CCN1/C(=C/C=C/C=C/c2sc3ccccc3[n+]2CC)Sc2ccccc21`: the T/C (dose: 0.05 mg/kg/injection, schedule: Q01DX009 (ip), vehicle: saline) was 123 % of control; the T/C (dose: 0.06 mg/kg/injection, schedule: Q01DX009 (ip), vehicle: saline) is 124 % of control; the T/C (dose: 0.08 mg/kg/injection, schedule: Q01DX009 (ip), vehicle: saline) was 107 % of control; the T/C (dose: 0.12 mg/kg/injection, schedule: Q01DX009 (ip), vehicle: saline) is 117 % of control and 122 % of control; the T/C (dose: 0.25 mg/kg/injection, schedule: Q01DX009 (ip), vehicle: saline) was 123 % of control; the T/C (dose: 0.28 mg/kg/injection, schedule: Q01DX009 (ip), vehicle: saline) is 123 % of control.
In the case of `CCCCCCCCCCCCCCCC[N+]1([O-])CCCC1`, the T/C under setting [8] was 102 % of control.
Turning to `CCN(CC)CCOC(C)(C)C#CC(C)(C)O`, the T/C under setting [1] was 100 % of control, the T/C under setting [2] is 99 % of control and the T/C under setting [3] was 99 % of control.
Consider `OCC(O)CNc1ncnc2cc(Cl)ccc12` (configuration not stated), for which the T/C is 100 % of control (dose: 25.0 mg/kg/injection, schedule: Q01DX005 (ip), vehicle: Klucel (hydroxypropylcellulose) (HPC)); 96 % of control (dose: 50.0 mg/kg/injection, schedule: Q01DX005 (ip), vehicle: Klucel (hydroxypropylcellulose) (HPC)); 102 % of control (dose: 100.0 mg/kg/injection, schedule: Q01DX005 (ip), vehicle: Klucel (hydroxypropylcellulose) (HPC)); 105 % of control (dose: 200.0 mg/kg/injection, schedule: Q01DX005 (ip), vehicle: Klucel (hydroxypropylcellulose) (HPC)).
On to `O=C1CSC(=Nc2ccccc2)N1c1ccc(-n2c(-c3ccc(N=Cc4ccc(Cl)cc4)cc3)nc3ccccc3c2=O)cc1`, for which the T/C under setting [6] is 92 % of control.
Take `CN=C(N)N/N=C(\c1ccccc1)c1ccc(Cl)cc1`: the T/C is 102 % of control (dose: 6.25 mg/kg/injection, schedule: Q04DX002 (ip), vehicle: saline with Tween-80); 109 % of control (dose: 12.5 mg/kg/injection, schedule: Q04DX002 (ip), vehicle: saline with Tween-80); 153 % of control (dose: 25.0 mg/kg/injection, schedule: Q04DX002 (ip), vehicle: saline with Tween-80).
Take `FC(F)(F)c1ccccc1NC(=S)N1CCN(c2ccccc2)CC1`: the T/C is 109 % of control (dose: 50.0 mg/kg/injection, schedule: Q01DX009 (ip), vehicle: gum acacia); 100 % of control (dose: 100.0 mg/kg/injection, schedule: Q01DX009 (ip), vehicle: gum acacia); 92 % of control (dose: 200.0 mg/kg/injection, schedule: Q01DX009 (ip), vehicle: gum acacia).
With `O=c1c(C(=Nc2ccccc2)c2ccccc2)c[nH]n1-c1ccccc1`, the T/C by setting is: (dose: 60.0 mg/kg/injection, schedule: Q01DX005 (ip), vehicle: saline with Tween-80) 105 % of control; (dose: 120.0 mg/kg/injection, schedule: Q01DX005 (ip), vehicle: saline with Tween-80) 105 % of control; (dose: 240.0 mg/kg/injection, schedule: Q01DX005 (ip), vehicle: saline with Tween-80) 105 % of control.
Regarding `C/C=C/C(=O)Sc1ccccc1`, the T/C is 108 % of control (dose: 12.5 mg/kg/injection, schedule: Q01DX009 (ip), vehicle: Klucel (hydroxypropylcellulose) (HPC)); 105 % of control (dose: 25.0 mg/kg/injection, schedule: Q01DX009 (ip), vehicle: Klucel (hydroxypropylcellulose) (HPC)); 101 % of control and 105 % of control under setting [11].
`N#CC1C(=O)NC(=S)NC1c1ccc(Cl)cc1` (configuration not stated): the T/C runs as follows: under setting [11], 94 % of control; (dose: 100.0 mg/kg/injection, schedule: Q01DX009 (ip), vehicle: Klucel (hydroxypropylcellulose) (HPC)) 101 % of control.
As for `CC(C)N1NC1(C)C` (configuration not stated), the T/C was 107 % of control under setting [1], 107 % of control under setting [2] and 100 % of control under setting [3].
